Broadly, the Kd is the constant that tells how readily two partners part at equilibrium. A low value points to a tighter complex. A word on the Km: it is the concentration of substrate that gives half-maximal velocity.

The target in assay [1] is PCY1:S562A. In words: ITC equilibrium binding to PCY1:S562A. The note with it: ITC, 25° C. Details: species or system Saponaria vaccaria. The method, then:
All PCY1 samples were buffer-exchanged or solubilized into buffer F and further diluted in the same batch of buffer F, in order to minimize buffer mismatches. ITC binding experiments were performed using a cell solution containing PCY1:S562A and a titrant solution with each peptide used. […] The measurements were performed at a stir speed of 750 rpm at 25° C. using a reference power of 10 μcal/s, except for A1-NH2 (5 μcal/s). A buffer titration control in which peptide was titrated into buffer was performed for each experiment. Data processing, fitting to a non-linear one-site binding model, and data plotting was performed using MicroCal PEAQ ITC analysis software (Malvern). […] The measurement was performed in buffer at 30° C., at 750 rpm using a reference power of 5 μcal/s.

Assay [2] concerns PCY1. As to the kind of experiment: LC/MS time course of macrocyclisation by PCY1. In kind it is biochemical, Saponaria vaccaria. The note with it: 200 μM substrate, 3.6 μM PCY1. The method, then:
(§1) All kinetic measurements (activity tests, progress curves and initial-rate experiments) were performed as discontinuous assays analyzing samples via LC/MS or MALDI (10-mer activity test). Reactions were performed in 20 mM Tris pH 8.5, 100 mM NaCl, 5 mM DTT (for progress curves 0.2 mg mL-1 BSA was included).17 Reactions were performed at 30° C. and at various time points 50 μL samples were quenched with 20 μL of 6% (v/v) TFA. Samples (50 μL) were loaded onto a ZORBAX SBC18, 5 μm, 9.4 mm×50 mm (Agilent) column connected to an Agilent LC-MS instrument (G6130B Single Quad, Agilent Technologies). Reactants were separated from products using a gradient from A (H2O with 0.1% formic acid) to 80% B (acetonitrile), at a rate of 1.5 mL/min for 8.75 min. For data analysis, ion count peaks and UV absorbance peaks were integrated using Agilent ChemStation software. For data analysis involving quantitative mass spec integration, calibration curves with macrocyclic peptide product were performed in triplicate in order to linearly correlate ion counts to cyclic product concentration. Data fitting and plotting was performed with Prism 6.
PCY1 extracted from S. vaccaria seeds has been previously described to have a turnover number of ˜1 h^−1 for PresegA1.^17 The enzyme produced heterologously in E. coli was evaluated by LC/MS-based time course experiments macrocyclizing 200 μM of PresegA1, PresegB1 or PresegF1 with 3.6 μM PCY1. […] We chose to investigate the slowest and fastest substrate by steady-state kinetics using an LC/MS assay and UV280 nm quantification. […] Under the ITC conditions, the measured kcat (0.14±0.01 s^−1) was a factor of three lower than the LC/MS derived values. […] Therefore, we resorted to an LC/MS assay followed by quantification using mass ion counts, relying on a calibration curve employing the macrocyclic peptide product as a standard (FIG. 2b).

Assay [3] has as its system PCY1. In words: LC/MS steady-state kinetics of macrocyclisation by PCY1. In kind it is biochemical, Saponaria vaccaria. How it is done: as §1
PCY1 extracted from S. vaccaria seeds has been previously described to have a turnover number of ˜1 h^−1 for PresegA1.^17 The enzyme produced heterologously in E. coli was evaluated by LC/MS-based time course experiments macrocyclizing 200 μM of PresegA1, PresegB1 or PresegF1 with 3.6 μM PCY1. These substrates were chosen as they produce 6, 5 and 9 residue macrocycles, respectively, show variability in the length of the C-terminal tail sequence, and have a different C-terminal core residue (proline in PresegF1, alanine in the other two) (FIG. 1b). PresegB1 was completely macrocyclized in ˜30 min, PresegA1 in ˜50 min and PresegF1 in >3 h (FIG. 2a). We chose to investigate the slowest and fastest substrate by steady-state kinetics using an LC/MS assay and UV280 nm quantification. […] Under the ITC conditions, the measured kcat (0.14±0.01 s^−1) was a factor of three lower than the LC/MS derived values. […] Therefore, we resorted to an LC/MS assay followed by quantification using mass ion counts, relying on a calibration curve employing the macrocyclic peptide product as a standard (FIG. 2b).

Assay [4] deals with 25mer and 35mer substrates. As to the kind of experiment: Activity of GmPOPB mutants with 25mer and 35mer substrates. In kind it is biochemical, Galerina marginata. The note with it: 5 μM GmPOPB, 24 h (16 h elsewhere in the source). How it is done:
Comparison between distinct GmPOPB substrates was performed in 50 mM Tris pH 8.0, 50 mM NaCl, 10 mM DTT with varying concentrations of substrates at room temperature. All reactions were performed in duplicates. […] Reactions were quenched at several time points by adding 50 μL reaction mixture to 20 μL 6% TFA. Reactants were separated from products for quantification by injecting 50 μL of each quenched time point mix onto a ZORBAX SB-C18, 5 μm, 9.4×50 mm (Agilent) column connected to an Agilent LC-MS (G6130B Single Quad, Agilent Technologies). Reactants were separated from products using a gradient from H2O containing 0.1% TFA or 0.1% formic acid and 5% acetonitrile to 50% acetonitrile, at 1.5 ml/min for 8 min. Peaks with ultra violet (UV) absorbance at 220 and 280 nm were integrated, the area of peaks corresponding to reactant and products was used to calculate the percentage of product formed after a correction for differences in the extinction coefficient of each peptide was applied (ε280-25mer=11,000M-1 cm-1, ε220-25mer=46,000M-1 cm-1, ε280-cyclic=5500M-1 cm-1, ε220-cyclic=34,000M-1 cm-1, and ε280-tail=5500M-1 cm-1). The sum of product+substrate was assumed equal to the total initial amount of substrate, product converted from % to concentration. This value was divided by concentration of enzyme present to yield v/Et (min-1). […] For progress curves with the 35mer substrate, measurements were triplicate and quantification relied on ion counts from mass spectrometry. […] Authentic macrocyclic peptide was quantified by UV absorbance. Data showing products formed after 1 and 16 h with truncated peptides were performed twice. […] Kinetic data were fitted to a Michaelis-Menten equation using GraphPad Prism, and values reported are average and standard error of the mean. […]
To study other residues involved in hydrolysis and macrocyclisation, additional mutants H698N, R663A, R663Q, R663K, and W695Δ (deletion) were generated. […] H698N was insoluble and not evaluated. […]

Sequence of PCY1 (as listed by the source): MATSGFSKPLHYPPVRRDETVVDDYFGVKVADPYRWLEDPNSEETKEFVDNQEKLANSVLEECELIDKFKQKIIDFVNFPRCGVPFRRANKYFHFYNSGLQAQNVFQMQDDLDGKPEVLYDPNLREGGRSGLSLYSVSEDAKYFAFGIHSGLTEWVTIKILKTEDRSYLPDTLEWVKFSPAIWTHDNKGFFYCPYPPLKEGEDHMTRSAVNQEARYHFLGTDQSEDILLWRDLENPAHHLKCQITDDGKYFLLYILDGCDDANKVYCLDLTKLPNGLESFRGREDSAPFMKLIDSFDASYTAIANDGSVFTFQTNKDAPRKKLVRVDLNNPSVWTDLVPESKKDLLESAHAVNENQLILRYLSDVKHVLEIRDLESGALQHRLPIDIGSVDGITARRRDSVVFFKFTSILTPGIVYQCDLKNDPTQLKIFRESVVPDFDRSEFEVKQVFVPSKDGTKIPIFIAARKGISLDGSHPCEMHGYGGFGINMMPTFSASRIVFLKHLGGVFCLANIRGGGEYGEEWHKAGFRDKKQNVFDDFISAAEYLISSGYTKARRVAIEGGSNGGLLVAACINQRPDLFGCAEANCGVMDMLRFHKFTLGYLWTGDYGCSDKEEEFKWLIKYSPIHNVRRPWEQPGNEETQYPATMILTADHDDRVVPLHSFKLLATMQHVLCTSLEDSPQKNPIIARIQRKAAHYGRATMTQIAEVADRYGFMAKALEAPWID
Sequence of PCY1:S562A (as listed by the source, stated change not applied): as the sequence (as listed by the source) above, with S562A counted along it

Turning to “PresegF1: native linear PCY1 substrate presegetalin F1; produces a 9 residue macrocycle (FSASYSSKPIQTQVSNGMDNASAPV; PresegF1)”, in assay [1], the Kd is ~200 nM. Further, in assay [2], the “time until completely macrocyclized” value was > 3 h. For the same molecule, in assay [3] (LC/MS (ion counts), 30° C.), the “kcat (table head prints kout)” value was determined as 0.12 ± 0.01 s⁻¹. For the same molecule, the Km in assay [3] (LC/MS (ion counts), 30° C., read-out: Km (table head prints Kin)) was 2.4 ± 0.51 µM. In addition, in assay [3] (steady state kinetics, FIG. 7), the “processing by PCY1 (in words)” value is “rapidly processed”.

B1: S577A: GmPOPB catalytic triad mutant (protein)
chain: MSSVTWAPGNYPSTRRSDHVDTYQSASKGEVPVPDPYQWLEESTDEVDKWTTAQADLAQSYLDQNADIQKLAEKFRASRNYAKFSAPTLLDDGHWYWFYNRGLQSQSVLYRSKEPALPDFSKGDDNVGDVFFDPNVLAADGSAGMVLCKFSPDGKFFAYAVSHLGGDYSTIYVRSTSSPLSQASVAQGVDGRLSDEVKWFKFSTIIWTKDSKGFLYQRYPARERHEGTRSDRNAMMCYHKVGTTQEEDIIVYQDNEHPEWIYGADTSEDGKYLYLYQFKDTSKKNLLWVAELDEDGVKSGIHWRKVVNEYAADYNIITNHGSLVYIKTNLNAPQYKVITIDLSKDEPEIRDFIPEEKDAKLAQVNCANEEYFVAIYKRNVKDEIYLYSKAGVQLTRLAPDFVGAASIANRQKQTHFFLTLSGFNTPGTIARYDFTAPETQRFSILRTTKVNELDPDDFESTQVWYESKDGTKIPMFIVRHKSTKFDGTAAAIQYGYGGFATSADPFFSPIILTFLQTYGAIFAVPSIRGGGEFGEEWHKGGRRETKVNTFDDFIAAAQFLVKNKYAAPGKVAINGAANGGLLVMGSIVRAPEGTFGAAVPEGGVADLLKFHKFTGGQAWISEYGNPSIPEEFDYIYPLSPVHNVRTDKVMPATLITVNIGDGRVVPMHSFKFIATLQHNVPQNPHPLLIKIDKSWLGHGMGKPTDKNVKDAADKWGFIARALGLELKTVE
For the molecule B1, in assay [4], the “activity of GmPOPB mutant (in words)” value was “inactive”.

B2: H698A: GmPOPB catalytic triad mutant (protein, UniProt H2E7Q8 1-730, looked up, variant H698A)
Dual function …: MSSVTWAPGNYPSTRRSDHVDTYQSASKGEVPVPDPYQWLEESTDEVDKWTTAQADLAQSYLDQNADIQKLAEKFRASRNYAKFSAPTLLDDGHWYWFYNRGLQSQSVLYRSKEPALPDFSKGDDNVGDVFFDPNVLAADGSAGMVLCKFSPDGKFFAYAVSHLGGDYSTIYVRSTSSPLSQASVAQGVDGRLSDEVKWFKFSTIIWTKDSKGFLYQRYPARERHEGTRSDRNAMMCYHKVGTTQEEDIIVYQDNEHPEWIYGADTSEDGKYLYLYQFKDTSKKNLLWVAELDEDGVKSGIHWRKVVNEYAADYNIITNHGSLVYIKTNLNAPQYKVITIDLSKDEPEIRDFIPEEKDAKLAQVNCANEEYFVAIYKRNVKDEIYLYSKAGVQLTRLAPDFVGAASIANRQKQTHFFLTLSGFNTPGTIARYDFTAPETQRFSILRTTKVNELDPDDFESTQVWYESKDGTKIPMFIVRHKSTKFDGTAAAIQYGYGGFATSADPFFSPIILTFLQTYGAIFAVPSIRGGGEFGEEWHKGGRRETKVNTFDDFIAAAQFLVKNKYAAPGKVAINGASNGGLLVMGSIVRAPEGTFGAAVPEGGVADLLKFHKFTGGQAWISEYGNPSIPEEFDYIYPLSPVHNVRTDKVMPATLITVNIGDGRVVPMHSFKFIATLQHNVPQNPHPLLIKIDKSWLGAGMGKPTDKNVKDAADKWGFIARALGLELKTVE
As to B2, the “activity of GmPOPB mutant (in words)” value in assay [4] is “inactive”.

B3: D661A: GmPOPB catalytic triad mutant (protein, UniProt H2E7Q8 1-730, looked up, variant D661A)
Dual function …: MSSVTWAPGNYPSTRRSDHVDTYQSASKGEVPVPDPYQWLEESTDEVDKWTTAQADLAQSYLDQNADIQKLAEKFRASRNYAKFSAPTLLDDGHWYWFYNRGLQSQSVLYRSKEPALPDFSKGDDNVGDVFFDPNVLAADGSAGMVLCKFSPDGKFFAYAVSHLGGDYSTIYVRSTSSPLSQASVAQGVDGRLSDEVKWFKFSTIIWTKDSKGFLYQRYPARERHEGTRSDRNAMMCYHKVGTTQEEDIIVYQDNEHPEWIYGADTSEDGKYLYLYQFKDTSKKNLLWVAELDEDGVKSGIHWRKVVNEYAADYNIITNHGSLVYIKTNLNAPQYKVITIDLSKDEPEIRDFIPEEKDAKLAQVNCANEEYFVAIYKRNVKDEIYLYSKAGVQLTRLAPDFVGAASIANRQKQTHFFLTLSGFNTPGTIARYDFTAPETQRFSILRTTKVNELDPDDFESTQVWYESKDGTKIPMFIVRHKSTKFDGTAAAIQYGYGGFATSADPFFSPIILTFLQTYGAIFAVPSIRGGGEFGEEWHKGGRRETKVNTFDDFIAAAQFLVKNKYAAPGKVAINGASNGGLLVMGSIVRAPEGTFGAAVPEGGVADLLKFHKFTGGQAWISEYGNPSIPEEFDYIYPLSPVHNVRTDKVMPATLITVNIGAGRVVPMHSFKFIATLQHNVPQNPHPLLIKIDKSWLGHGMGKPTDKNVKDAADKWGFIARALGLELKTVE
Consider B3, for which, in assay [4], the “activity of GmPOPB mutant (in words)” value is “inactive”.

(Values after patent publication US20200291444A1, “Macrocyclisation Tags” (Oxford University Innovation LTD, priority 2017, published 2020).)
